According to publication PMC6698751 (2019):

Key:
[1] = tested on: glutamine-II riboswitch (RNA used for crystallization) (RNA, riboswitch, 5-bromocytidine at 8 and 9) CGUUCACCCUUCGGGGCGCAUGAAAUGGGAGUAGGGAACGGGAUUCUCAU; experiment: X-ray crystallography, 2.3 Å; conditions: Mg2+ in PDB record; strand-exchanged dimer; metal ion directly bound to glutamine carboxylate
[2] = tested on: glutamine-II riboswitch (unmodified; RNA used for calorimetry) (RNA, riboswitch) CGUUCACCCUUCGGGGCGCAUGAAAUGGGAGUAGGGAACGGGAUUCUCAU; experiment: isothermal titration calorimetry; conditions: 100 mM K+, 10 mM Mg2+; 40 mM HEPES-K pH 7.0 (7.2 in Figure 4 legend), 298 K; mean of three titrations
[3] = tested on: C1Z glutamine-II riboswitch (RNA, riboswitch, zebularine at 1 (C1Z)) CGUUCACCCUUCGGGGCGCAUGAAAUGGGAGUAGGGAACGGGAUUCUCAU; experiment: isothermal titration calorimetry; conditions: 100 mM K+, 10 mM Mg2+; 40 mM HEPES-K pH 7.0, 298 K; no measurable heat; 2-4 mM L-glutamine in syringe
[4] = tested on: C39Z glutamine-II riboswitch (RNA, riboswitch, zebularine at 39 (C39Z)) CGUUCACCCUUCGGGGCGCAUGAAAUGGGAGUAGGGAACGGGAUUCUCAU; experiment: isothermal titration calorimetry; conditions: 100 mM K+, 10 mM Mg2+; 40 mM HEPES-K pH 7.0, 298 K; 2-4 mM L-glutamine in syringe
[5] = tested on: G18 O2'H glutamine-II riboswitch (RNA, riboswitch, 2'-deoxy at 18 (2'-hydroxyl of G18 removed)) CGUUCACCCUUCGGGGCGCAUGAAAUGGGAGUAGGGAACGGGAUUCUCAU; experiment: isothermal titration calorimetry; conditions: 100 mM K+, 10 mM Mg2+; 40 mM HEPES-K pH 7.0, 298 K; 2-4 mM L-glutamine in syringe
[6] = tested on: two-piece glutamine-II riboswitch (RNA, riboswitch) CGUUCACCCUUCGGGGCGCA/UGAAAUGGGAGUAGGGAACGGGAUUCUCAU; experiment: isothermal titration calorimetry; conditions: 100 mM K+, 10 mM Mg2+; equimolar mixture of two strands, 40 mM HEPES-K pH 7.0, 298 K

Question: Which binding [1] does the source give for NC(=O)CC[C@H](N)C(=O)O here?
Answer: The binding was “yes”.

Question: And the Kd [2]?
Answer: The Kd was 190 ± 90 µM.

Question: And the binding [3]?
Answer: The binding was “no”.

Question: And the binding [4]?
Answer: The binding was “no”.

Question: What about the binding [5] of the same compound?
Answer: Its binding is “no”.

Question: What about the binding [6] of the same compound?
Answer: The binding was “yes”.
